Experimental data: patent US8877814B2, “Titration package for neramexane and its use in the treatment of an inner ear disorder” (Merz Pharma GmbH & Co. KGaA, priority 2007, dated 2014)

Key:
[1] = system: patients afflicted with various degrees of hearing loss; assay: Double blind placebo controlled pilot trial of neramexane for treatment of hearing loss; format: in vivo, human; conditions: neramexane mesylate up to 75 mg/d, compared to the placebo group
Description: A hearing threshold level may be defined as the average of the pure tone hearing threshold levels at testing frequencies of 0.25, 0.5, 1, 2 and 4 kHz.
The primary objective of this study is to investigate the safety and efficacy of neramexane mesylate at daily doses of up to 75 mg in the treatment of hearing loss in comparison to placebo.
Neramexane mesylate (or placebo) is uptitrated to a maximum daily dose of 75 mg, starting with a daily dose of 25 mg for one week, and increasing dosage in 25 mg steps at weekly intervals.
Treatment is started in the evening of study day 1. The daily starting dose is 25 mg neramexane mesylate per dose to be taken for 7 days at bedtime. […]
Primary Outcome • Change from baseline in hearing threshold level of left/right ear (dB) calculated as average of the pure tone hearing level threshold levels at 0.25, 0.5, 1, 2 and 4 kHz.
Secondary Outcomes • Change from baseline in high frequency hearing threshold of left/right ear (dB) calculated as average of the pure tone hearing threshold levels at 4, 6, 8 and 10 kHz • Change from baseline in individual frequencies (hearing thresholds) on a pure tone audiogram (air conduction) • Number of Responder • Patient-reported outcome on a 11-point Likert-Scale (0=hearing is not a problem, 10=hearing is a problem as much as possible) • Change in hearing impairment based on the hearing threshold level: […]

α 9/α 10 nicotinic = α 9/α 10 nicotinic (Rattus norvegicus, UniProt P43144+Q9JLB5); conditions: Plazas et al., Eur J. Pharmacol. 2007; cited from earlier work
Sequence of α 9/α 10 nicotinic (P43144 26-479): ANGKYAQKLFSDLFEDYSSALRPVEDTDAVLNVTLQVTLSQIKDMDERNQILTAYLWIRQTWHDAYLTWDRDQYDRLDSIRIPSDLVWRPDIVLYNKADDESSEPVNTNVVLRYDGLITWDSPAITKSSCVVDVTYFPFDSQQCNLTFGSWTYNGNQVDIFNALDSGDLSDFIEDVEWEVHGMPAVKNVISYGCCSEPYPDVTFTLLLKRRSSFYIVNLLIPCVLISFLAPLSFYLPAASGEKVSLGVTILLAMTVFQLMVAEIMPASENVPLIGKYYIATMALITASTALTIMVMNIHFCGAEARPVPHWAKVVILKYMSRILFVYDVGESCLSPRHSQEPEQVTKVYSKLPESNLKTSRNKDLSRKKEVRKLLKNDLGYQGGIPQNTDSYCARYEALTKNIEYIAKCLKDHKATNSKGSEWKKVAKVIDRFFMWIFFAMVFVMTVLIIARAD
Sequence of α 9/α 10 nicotinic (Q9JLB5 25-447): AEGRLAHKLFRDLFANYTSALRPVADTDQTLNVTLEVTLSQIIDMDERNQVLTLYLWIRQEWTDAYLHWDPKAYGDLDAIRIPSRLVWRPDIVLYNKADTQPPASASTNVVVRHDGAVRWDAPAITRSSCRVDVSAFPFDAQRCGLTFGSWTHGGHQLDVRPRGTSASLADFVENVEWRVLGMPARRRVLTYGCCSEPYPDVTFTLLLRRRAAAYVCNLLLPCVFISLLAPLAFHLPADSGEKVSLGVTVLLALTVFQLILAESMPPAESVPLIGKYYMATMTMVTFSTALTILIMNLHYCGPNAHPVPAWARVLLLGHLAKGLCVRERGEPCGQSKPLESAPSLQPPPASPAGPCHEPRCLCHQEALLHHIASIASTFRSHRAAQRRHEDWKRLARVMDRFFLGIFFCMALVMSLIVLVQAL

5-HT3 receptors = conditions: cited from earlier work
[2] = system: subjects with subjective tinnitus of at least moderate severity; assay: Double blind placebo controlled pilot trial of neramexane for tinnitus: treatment emergent adverse events leading to drop-out
Description: The primary objective of this study was to compare the efficacy, tolerability and safety of neramexane mesylate at three different dosages (25, 50 or 75 mg/d) with placebo in subjects with subjective tinnitus of at least moderate severity.
In a double-blind, multicenter, randomized, placebo-controlled, parallel-group study, the efficacy of neramexane in subjects suffering from tinnitus of at least moderate severity was assessed. Approximately 100 patients, who fulfilled particular inclusion criteria and met none of particular exclusion criteria, were randomized to each of four double-blind treatment groups (neramexane mesylate 25, 50, 75 mg/d or placebo), resulting in approximately 400 patients in total.
The double-blind, 16-week treatment period consisted of a 4-week uptitration period and a 12-week fixed-dose treatment period at unchanged maintenance b.i.d. dosing. In case of poor tolerability, however, the investigator could consider a dose reduction by 25 mg/d (or placebo, respectively). […] In total, this study involved seven study visits: screening, baseline, and at the end of weeks 4, 8, 12, 16, and 20. (Participants received either neramexane mesylate (e.g. 50 mg, as 25 mg immediate release tablets given twice daily) or placebo twice daily for 16 weeks. Neramexane mesylate was uptitrated in weekly steps of 12.5 or 25 mg during a 4-week uptitration period preceding the fixed-dose 12-week treatment period. Treatment was followed by a four week follow-up period.)
Neramexane mesylate immediate release tablets (12.5 mg and 25 mg) and matching placebo tablets were administered as film coated tablets.
Study medication was dispensed at Visit 2 (baseline, day 0). Each patient received one blister box containing 5 blister cards (including one reserve blister) of double-blind study medication (i.e., 32 tablets). Subjects were instructed to take 2 tablets twice daily (4 tablets/d), beginning the day after dispensing of the study medication, until they returned for their next study visit (Visit 3). For those subjects assigned to receive active medication, some placebo tablets were incorporated into the dosing regimen to ensure blinding during the uptitration period. The target fixed-maintenance dose of 25, 50, or 75 mg/d was administered starting with the fifth week of double-blind treatment and was continued throughout the study. At each of the subsequent visits (Visits 3, 4, and 5, corresponding to end of week 4, 8 and 12) patients received another blister box containing 5 blister cards for the 4 week intervals, with double-blind medication for the intervening treatment period until the next study visit.
In case of poor tolerability the investigator could consider a dose reduction of 25 mg/d by omitting the bigger tablet in the morning which constituted an effective dose reduction only in the 75 mg/d and 50 mg/d neramexane mesylate groups. After omitting the bigger tablet (25 mg or placebo, respectively) of the morning dose, these patients could then continue the course of the study as scheduled, while receiving only one smaller tablet as the morning dose (12.5 mg or placebo, respectively) and 2 tablets of different sizes (12.5 mg, 25 mg or placebo, respectively) as the evening dose. The dose was to be kept stable until the end of the study.

CC1(C)CC(C)(C)CC(C)(N)C1 [Neramexane, 1-amino-1,3,3,5,5-pentamethylcyclohexane]
Primary outcome: change from baseline in hearing threshold level [1]: improvement | Secondary outcomes (e.g. change from baseline in different frequencies on a pure tone audiogram) [1]: improvement | activity at the α 9/α 10 nicotinic receptors (α 9/α 10 nicotinic): exhibit activity | activity at 5-HT3 receptors (5-HT3 receptors): exhibit activity | Any adverse event leading to drop-out, % of patients ([2]; 25 mg/d, N = 108, EFS): (8.3) % | Any adverse event leading to drop-out, n (number of patients) ([2]; 25 mg/d, N = 108, EFS): 9 | Cardiovascular disorder leading to drop-out, % of patients ([2]; 25 mg/d, N = 108, EFS): (0.0) % | Cardiovascular disorder leading to drop-out, n (number of patients) ([2]; 25 mg/d, N = 108, EFS): 0 | Depression leading to drop-out, % of patients ([2]; 25 mg/d, N = 108, EFS): (0.9) % | Depression leading to drop-out, n (number of patients) ([2]; 25 mg/d, N = 108, EFS): 1 | Dizziness leading to drop-out, % of patients ([2]; 25 mg/d, N = 108, EFS): (1.9) % | Dizziness leading to drop-out, n (number of patients) ([2]; 25 mg/d, N = 108, EFS): 2 | Fatigue leading to drop-out, % of patients ([2]; 25 mg/d, N = 108, EFS): (0.0) % | Fatigue leading to drop-out, n (number of patients) ([2]; 25 mg/d, N = 108, EFS): 0 | Headache leading to drop-out, % of patients ([2]; 25 mg/d, N = 108, EFS): (0.0) % | Headache leading to drop-out, n (number of patients) ([2]; 25 mg/d, N = 108, EFS): 0 | Hyperhidrosis leading to drop-out, % of patients ([2]; 25 mg/d, N = 108, EFS): (0.0) % | Hyperhidrosis leading to drop-out, n (number of patients) ([2]; 25 mg/d, N = 108, EFS): 0 | Nausea leading to drop-out, % of patients ([2]; 25 mg/d, N = 108, EFS): (0.0) % | Nausea leading to drop-out, n (number of patients) ([2]; 25 mg/d, N = 108, EFS): 0 | Paresthesia leading to drop-out, % of patients ([2]; 25 mg/d, N = 108, EFS): (0.0) % | Paresthesia leading to drop-out, n (number of patients) ([2]; 25 mg/d, N = 108, EFS): 0 | Tinnitus leading to drop-out, % of patients ([2]; 25 mg/d, N = 108, EFS): (1.9) % | Tinnitus leading to drop-out, n (number of patients) ([2]; 25 mg/d, N = 108, EFS): 2 | Vertigo leading to drop-out, % of patients ([2]; 25 mg/d, N = 108, EFS): (0.0) % | Vertigo leading to drop-out, n (number of patients) ([2]; 25 mg/d, N = 108, EFS): 0 | Visual acuity reduced leading to drop-out, % of patients ([2]; 25 mg/d, N = 108, EFS): (0.0) % | Visual acuity reduced leading to drop-out, n (number of patients) ([2]; 25 mg/d, N = 108, EFS): 0 | Any adverse event leading to drop-out, % of patients ([2]; 50 mg/d, N = 107, EFS): (21.5) % | Any adverse event leading to drop-out, n (number of patients) ([2]; 50 mg/d, N = 107, EFS): 23 | Cardiovascular disorder leading to drop-out, % of patients ([2]; 50 mg/d, N = 107, EFS): (1.9) % | Cardiovascular disorder leading to drop-out, n (number of patients) ([2]; 50 mg/d, N = 107, EFS): 2 | Depression leading to drop-out, % of patients ([2]; 50 mg/d, N = 107, EFS): (1.9) % | Depression leading to drop-out, n (number of patients) ([2]; 50 mg/d, N = 107, EFS): 2 | Dizziness leading to drop-out, % of patients ([2]; 50 mg/d, N = 107, EFS): (5.6) % | Dizziness leading to drop-out, n (number of patients) ([2]; 50 mg/d, N = 107, EFS): 6 | Fatigue leading to drop-out, % of patients ([2]; 50 mg/d, N = 107, EFS): (1.9) % | Fatigue leading to drop-out, n (number of patients) ([2]; 50 mg/d, N = 107, EFS): 2 | Headache leading to drop-out, % of patients ([2]; 50 mg/d, N = 107, EFS): (0.9) % | Headache leading to drop-out, n (number of patients) ([2]; 50 mg/d, N = 107, EFS): 1 | Hyperhidrosis leading to drop-out, % of patients ([2]; 50 mg/d, N = 107, EFS): (0.0) % | Hyperhidrosis leading to drop-out, n (number of patients) ([2]; 50 mg/d, N = 107, EFS): 0 | Nausea leading to drop-out, % of patients ([2]; 50 mg/d, N = 107, EFS): (1.9) % | Nausea leading to drop-out, n (number of patients) ([2]; 50 mg/d, N = 107, EFS): 2 | Paresthesia leading to drop-out, % of patients ([2]; 50 mg/d, N = 107, EFS): (1.9) % | Paresthesia leading to drop-out, n (number of patients) ([2]; 50 mg/d, N = 107, EFS): 2 | Tinnitus leading to drop-out, % of patients ([2]; 50 mg/d, N = 107, EFS): (0.0) % | Tinnitus leading to drop-out, n (number of patients) ([2]; 50 mg/d, N = 107, EFS): 0 | Vertigo leading to drop-out, % of patients ([2]; 50 mg/d, N = 107, EFS): (3.7) % | Vertigo leading to drop-out, n (number of patients) ([2]; 50 mg/d, N = 107, EFS): 4 | Visual acuity reduced leading to drop-out, % of patients ([2]; 50 mg/d, N = 107, EFS): (0.0) % | Visual acuity reduced leading to drop-out, n (number of patients) ([2]; 50 mg/d, N = 107, EFS): 0 | Any adverse event leading to drop-out, % of patients ([2]; 75 mg/d, N = 102, EFS): (28.4) % | Any adverse event leading to drop-out, n (number of patients) ([2]; 75 mg/d, N = 102, EFS): 29 | Cardiovascular disorder leading to drop-out, % of patients ([2]; 75 mg/d, N = 102, EFS): (0.0) % | Cardiovascular disorder leading to drop-out, n (number of patients) ([2]; 75 mg/d, N = 102, EFS): 0 | Depression leading to drop-out, % of patients ([2]; 75 mg/d, N = 102, EFS): (0.0) % | Depression leading to drop-out, n (number of patients) ([2]; 75 mg/d, N = 102, EFS): 0 | Dizziness leading to drop-out, % of patients ([2]; 75 mg/d, N = 102, EFS): (14.7) % | Dizziness leading to drop-out, n (number of patients) ([2]; 75 mg/d, N = 102, EFS): 15 | Fatigue leading to drop-out, % of patients ([2]; 75 mg/d, N = 102, EFS): (2.0) % | Fatigue leading to drop-out, n (number of patients) ([2]; 75 mg/d, N = 102, EFS): 2 | Headache leading to drop-out, % of patients ([2]; 75 mg/d, N = 102, EFS): (2.0) % | Headache leading to drop-out, n (number of patients) ([2]; 75 mg/d, N = 102, EFS): 2 | Hyperhidrosis leading to drop-out, % of patients ([2]; 75 mg/d, N = 102, EFS): (2.0) % | Hyperhidrosis leading to drop-out, n (number of patients) ([2]; 75 mg/d, N = 102, EFS): 2 | Nausea leading to drop-out, % of patients ([2]; 75 mg/d, N = 102, EFS): (2.0) % | Nausea leading to drop-out, n (number of patients) ([2]; 75 mg/d, N = 102, EFS): 2 | Paresthesia leading to drop-out, % of patients ([2]; 75 mg/d, N = 102, EFS): (0.0) % | Paresthesia leading to drop-out, n (number of patients) ([2]; 75 mg/d, N = 102, EFS): 0 | Tinnitus leading to drop-out, % of patients ([2]; 75 mg/d, N = 102, EFS): (1.0) % | Tinnitus leading to drop-out, n (number of patients) ([2]; 75 mg/d, N = 102, EFS): 1 | Vertigo leading to drop-out, % of patients ([2]; 75 mg/d, N = 102, EFS): (2.9) % | Vertigo leading to drop-out, n (number of patients) ([2]; 75 mg/d, N = 102, EFS): 3 | Visual acuity reduced leading to drop-out, % of patients ([2]; 75 mg/d, N = 102, EFS): (2.0) % | Visual acuity reduced leading to drop-out, n (number of patients) ([2]; 75 mg/d, N = 102, EFS): 2
